Patent US8969565B2, “Imidazo[1,2-b]pyridazine-based compounds, compositions comprising them, and methods of their use” (Lexicon Pharmaceuticals, Inc., priority 2012, dated 2015)

How the values were obtained:
AAK1 [1] = biological target: T1, AAK1 (Homo sapiens, UniProt Q2M2I8); test: HEK281 cell-based assay (phospho-mu2 Western blot in transfected HEK293F cells); conditions: 3 hours incubation, read-out: CBA IC50
T1 construct: HA; expressed in transfected cells; host or cells: HEK293F
Procedure, shortened: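 HEK293F cells co-transfected with full-length human AAK1/HA and Flag/AP2M1 were treated next day with 5 compound concentrations (3-fold dilutions) in DMEM+0.5% FBS for 3 hours at 37° C. Lysates were Western blotted for phospho-mu2, with total mu2 detected by anti-Flag.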

AAK1 [2] = biological target: T1, AAK1; test: P81 filter plate assay; format: biochemical; conditions: full-length human AAK1, Mu2 substrate

T1 sequence (Q2M2I8 1-863 isoform Q2M2I8-2): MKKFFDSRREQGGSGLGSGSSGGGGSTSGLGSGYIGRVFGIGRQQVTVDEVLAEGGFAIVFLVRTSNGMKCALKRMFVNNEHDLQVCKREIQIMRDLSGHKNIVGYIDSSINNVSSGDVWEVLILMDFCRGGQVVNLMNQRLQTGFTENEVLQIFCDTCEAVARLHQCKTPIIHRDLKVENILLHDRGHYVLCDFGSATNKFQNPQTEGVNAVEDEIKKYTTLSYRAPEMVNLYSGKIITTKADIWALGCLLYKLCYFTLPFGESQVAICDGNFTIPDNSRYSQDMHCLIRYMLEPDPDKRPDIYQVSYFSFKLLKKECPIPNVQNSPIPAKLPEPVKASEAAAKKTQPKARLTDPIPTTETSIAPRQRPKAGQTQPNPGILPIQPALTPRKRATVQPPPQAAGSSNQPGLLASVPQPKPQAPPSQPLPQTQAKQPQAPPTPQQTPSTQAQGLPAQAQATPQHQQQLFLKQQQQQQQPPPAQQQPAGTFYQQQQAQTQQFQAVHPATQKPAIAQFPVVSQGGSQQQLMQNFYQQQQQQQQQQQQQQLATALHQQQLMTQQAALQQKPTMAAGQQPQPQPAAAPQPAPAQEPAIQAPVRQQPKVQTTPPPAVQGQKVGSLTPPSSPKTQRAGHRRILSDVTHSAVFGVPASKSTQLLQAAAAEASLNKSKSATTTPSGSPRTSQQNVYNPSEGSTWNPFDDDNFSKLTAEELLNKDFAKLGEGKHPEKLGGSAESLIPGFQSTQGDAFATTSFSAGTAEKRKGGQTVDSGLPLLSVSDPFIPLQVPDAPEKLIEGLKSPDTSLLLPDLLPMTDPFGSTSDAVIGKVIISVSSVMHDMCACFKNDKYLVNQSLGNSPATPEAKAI

Q: With `COc1ncc(F)cc1-c1cnc2ccc(N3CCN(C(=O)OC(C)C)CC3)nn12` [isopropyl 4-(3-(5-fluoro-2-methoxypyridin-3-yl)imidazo[1,2-b]pyridazin-6-yl)piperazine-1-carboxylate] as the molecule, how does the IC50 (AAK1 [1]) read?
A: ≤ 10 nM

Q: What about the IC50 (AAK1 [2]) of the same molecule?
A: ≤ 10 nM

Q: Which results are given for `COc1ncccc1-c1cnc2ccc(N3CCC(N(C)C(=O)OC(C)(C)C)C3)nn12` (stereo not shown) [tert-butyl (1-(3-(2-methoxypyridin-3-yl)imidazo[1,2-b]pyridazin-6-yl)pyrrolidin-3-yl)(methyl)carbamate]?
A: IC50 (AAK1 [1]): ≤ 100 nM; IC50 (AAK1 [2]): ≤ 10 nM

Q: For `Cc1nc(C)c(-c2cnc3ccc(NC[C@@H]4CCCN4C(=O)CC(C)C)nn23)s1` [(S)-1-(2-(((3-(2,4-dimethylthiazol-5-yl)imidazo[1,2-b]pyridazin-6-yl)amino)methyl)pyrrolidin-1-yl)-3-methylbutan-1-one], which IC50 (AAK1 [1]) is on record?
A: ≤ 10 nM

Q: What about the IC50 (AAK1 [2]) of the same molecule?
A: ≤ 10 nM

Q: With `CCOC(=O)N(C)[C@H]1CCN(c2ccc3ncc(-c4cc(F)cnc4OC)n3n2)C1` [(S)-ethyl (1-(3-(5-fluoro-2-methoxypyridin-3-yl)imidazo[1,2-b]pyridazin-6-yl)pyrrolidin-3-yl)(methyl)carbamate] as the molecule, how does the IC50 (AAK1 [1]) read?
A: ≤ 100 nM

Q: What about the IC50 (AAK1 [2]) of the same molecule?
A: ≤ 10 nM

Q: `CC(C)CC(=O)N1CCC[C@H]1CNc1ccc2ncc(-c3ccc(F)cc3)n2n1` [(S)-1-(2-(((3-(4-fluorophenyl)imidazo[1,2-b]pyridazin-6-yl)amino)methyl)pyrrolidin-1-yl)-3-methylbutan-1-one] was tested. Which IC50 (AAK1 [1]) did it give?
A: ≤ 100 nM

Q: And the IC50 (AAK1 [2])?
A: ≤ 10 nM

Q: Which IC50 (AAK1 [1]) does the source give for `CNC(=O)c1cnc2ccc(NC[C@@H]3CCCN3C(=O)OC(C)(C)C)nn12` [(S)-tert-butyl 2-(((3-(methylcarbamoyl)imidazo[1,2-b]pyridazin-6-yl)amino)methyl)pyrrolidine-1-carboxylate] here?
A: ≤ 100 nM

Q: And the IC50 (AAK1 [2])?
A: ≤ 10 nM

Q: Which IC50 (AAK1 [1]) does the source give for `COc1cccc(-c2cnc3ccc(N4CCN(C(=O)OC(C)C)CC4)nn23)c1` [isopropyl 4-(3-(3-methoxyphenyl)imidazo[1,2-b]pyridazin-6-yl)piperazine-1-carboxylate] here?
A: ≤ 100 nM

Q: What about the IC50 (AAK1 [2]) of the same molecule?
A: ≤ 10 nM

Q: What does the source list for `C=COC(=O)N1CCC[C@H]1CNc1ccc2ncc(-c3ccccc3OC)n2n1` [(S)-vinyl 2-(((3-(2-methoxyphenyl)imidazo[1,2-b]pyridazin-6-yl)amino)methyl)pyrrolidine-1-carboxylate]?
A: IC50 (AAK1 [1]): ≤ 100 nM; IC50 (AAK1 [2]): ≤ 10 nM

Q: `COc1ccc(-c2cnc3ccc(N4CC[C@H](N(C)C(=O)OC(C)C)C4)nn23)c(OC)n1` [(S)-isopropyl (1-(3-(2,6-dimethoxypyridin-3-yl)imidazo[1,2-b]pyridazin-6-yl)pyrrolidin-3-yl)(methyl)carbamate] was tested. Which IC50 (AAK1 [1]) did it give?
A: ≤ 100 nM

Q: What about the IC50 (AAK1 [2]) of the same molecule?
A: ≤ 10 nM

Q: With `O=C(OC1CCC1)N1CCC[C@H]1CNc1ccc2ncc(Br)n2n1` [(S)-cyclobutyl 2-(((3-bromoimidazo[1,2-b]pyridazin-6-yl)amino)methyl)pyrrolidine-1-carboxylate] as the molecule, how does the IC50 (AAK1 [1]) read?
A: ≤ 100 nM

Q: And the IC50 (AAK1 [2])?
A: ≤ 10 nM

Q: Which results are given for `COc1ncccc1-c1cnc2ccc(N3CCN(C(=O)[C@@H](N)CC(C)C)CC3)nn12` [(S)-2-amino-1-(4-(3-(2-methoxypyridin-3-yl)imidazo[1,2-b]pyridazin-6-yl)piperazin-1-yl)-4-methylpentan-1-one]?
A: IC50 (AAK1 [1]): ≤ 10 nM; IC50 (AAK1 [2]): ≤ 10 nM

Q: For `COc1nc(C)ccc1-c1cnc2ccc(N3CCN(C(=O)OC(C)C)CC3)nn12` [isopropyl 4-(3-(2-methoxy-6-methylpyridin-3-yl)imidazo[1,2-b]pyridazin-6-yl)piperazine-1-carboxylate], which IC50 (AAK1 [1]) is on record?
A: ≤ 10 nM

Q: And the IC50 (AAK1 [2])?
A: ≤ 10 nM

Q: Which IC50 (AAK1 [1]) does the source give for `COCCOC(=O)N1CCN(c2ccc3ncc(-c4cccnc4OC)n3n2)CC1` [2-methoxyethyl 4-(3-(2-methoxypyridin-3-yl)imidazo[1,2-b]pyridazin-6-yl)piperazine-1-carboxylate] here?
A: ≤ 100 nM

Q: What about the IC50 (AAK1 [2]) of the same molecule?
A: ≤ 10 nM

Q: `Fc1ncccc1-c1cnc2ccc(NCCOC3CCCC3)nn12` [N-(2-(cyclopentyloxy)ethyl)-3-(2-fluoropyridin-3-yl)imidazo[1,2-b]pyridazin-6-amine] was tested. Which IC50 (AAK1 [1]) did it give?
A: ≤ 1000 nM

Q: And the IC50 (AAK1 [2])?
A: ≤ 10 nM

Q: For `COc1cncc(-c2cnc3ccc(NCCOC4CCCC4)nn23)c1` [N-(2-(cyclopentyloxy)ethyl)-3-(5-methoxypyridin-3-yl)imidazo[1,2-b]pyridazin-6-amine], which IC50 (AAK1 [1]) is on record?
A: ≤ 100 nM

Q: And the IC50 (AAK1 [2])?
A: ≤ 10 nM

Q: What does the source list for `COc1ncc(F)cc1-c1cnc2ccc(N3CC[C@H](N(C)C(=O)OC(C)C)C3)nn12` [(S)-isopropyl (1-(3-(5-fluoro-2-methoxypyridin-3-yl)imidazo[1,2-b]pyridazin-6-yl)pyrrolidin-3-yl)(methyl)carbamate]?
A: IC50 (AAK1 [1]): ≤ 100 nM; IC50 (AAK1 [2]): ≤ 10 nM

Q: `CC(C)(C)NC(=O)N1CCC[C@H]1CNc1ccc2ncc(Br)n2n1` [(S)-2-(((3-bromoimidazo[1,2-b]pyridazin-6-yl)amino)methyl)-N-(tert-butyl)pyrrolidine-1-carboxamide] was tested. Which IC50 (AAK1 [1]) did it give?
A: ≤ 100 nM

Q: And the IC50 (AAK1 [2])?
A: ≤ 10 nM

Q: How did the IC50 (AAK1 [1]) turn out when `Cc1cc(-c2cnc3ccc(NC[C@@H]4CCCN4C(=O)CC(C)C)nn23)ccn1` [(S)-3-methyl-1-(2-(((3-(2-methylpyridin-4-yl)imidazo[1,2-b]pyridazin-6-yl)amino)methyl)pyrrolidin-1-yl)butan-1-one] was run?
A: ≤ 100 nM

Q: And the IC50 (AAK1 [2])?
A: ≤ 10 nM

Q: How did the IC50 (AAK1 [1]) turn out when `CC(C)(C)NC(=O)N1CCN(c2ccc3ncc(-c4ccccc4)n3n2)CC1` [N-(tert-Butyl)-4-(3-phenylimidazo[1,2-b]pyridazin-6-yl)piperazine-1-carboxamide] was run?
A: ≤ 100 nM

Q: What about the IC50 (AAK1 [2]) of the same molecule?
A: ≤ 10 nM

Q: Which IC50 (AAK1 [1]) does the source give for `CC(C)(C)OC(=O)N1CC[C@H]1CNc1ccc2ncc(Br)n2n1` [(S)-tert-butyl 2-(((3-bromoimidazo[1,2-b]pyridazin-6-yl)amino)methyl)azetidine-1-carboxylate] here?
A: ≤ 100 nM

Q: What about the IC50 (AAK1 [2]) of the same molecule?
A: ≤ 10 nM

Q: How did the IC50 (AAK1 [1]) turn out when `O=C(OC1CCCC1)N1CCC[C@H]1CNc1ccc2ncc(-c3ccccc3)n2n1` [(S)-cyclopentyl 2-(((3-phenylimidazo[1,2-b]pyridazin-6-yl)amino)methyl)pyrrolidine-1-carboxylate] was run?
A: ≤ 100 nM

Q: And the IC50 (AAK1 [2])?
A: ≤ 10 nM

Q: With `O=C(OC1CCCC1)N1CCC[C@H]1CNc1ccc2ncc(-c3ccncc3)n2n1` [(S)-cyclopentyl 2-(((3-(pyridin-4-yl)imidazo[1,2-b]pyridazin-6-yl)amino)methyl)pyrrolidine-1-carboxylate] as the molecule, how does the IC50 (AAK1 [1]) read?
A: ≤ 10 nM

Q: And the IC50 (AAK1 [2])?
A: ≤ 10 nM

Q: With `COc1ncccc1-c1cnc2ccc(N(C)C[C@@H]3CCCN3C(=O)OC(C)C)nn12` [(S)-isopropyl 2-(((3-(2-methoxypyridin-3-yl)imidazo[1,2-b]pyridazin-6-yl)(methyl)amino)methyl)pyrrolidine-1-carboxylate] as the molecule, how does the IC50 (AAK1 [1]) read?
A: ≤ 10 nM

Q: And the IC50 (AAK1 [2])?
A: ≤ 10 nM

Q: How did the IC50 (AAK1 [1]) turn out when `CCCC(=O)N1CCC[C@H]1CNc1ccc2ncc(-c3ccc(CN)cc3)n2n1` [(S)-1-(2-(((3-(4-(aminomethyl)phenyl)imidazo[1,2-b]pyridazin-6-yl)amino)methyl)pyrrolidin-1-yl)butan-1-one] was run?
A: ≤ 10 nM

Q: What about the IC50 (AAK1 [2]) of the same molecule?
A: ≤ 10 nM

Q: For `COc1ccccc1-c1cnc2ccc(N3CCN(C(=O)NC(C)C)CC3)nn12` [N-isopropyl-4-(3-(2-methoxyphenyl)imidazo[1,2-b]pyridazin-6-yl)piperazine-1-carboxamide], which IC50 (AAK1 [1]) is on record?
A: ≤ 1000 nM

Q: What about the IC50 (AAK1 [2]) of the same molecule?
A: ≤ 10 nM

Q: Which IC50 (AAK1 [1]) does the source give for `NCc1ccc(-c2cnc3ccc(NCC4CCCN4CC(F)(F)F)nn23)cc1` (stereo not shown) [3-(4-(aminomethyl)phenyl)-N-((1-(2,2,2-trifluoroethyl)pyrrolidin-2-yl)methyl)imidazo[1,2-b]pyridazin-6-amine] here?
A: ≤ 100 nM

Q: And the IC50 (AAK1 [2])?
A: ≤ 10 nM

Q: How did the IC50 (AAK1 [1]) turn out when `CCOc1ncccc1-c1cnc2ccc(N3CCN(C(=O)OC(C)C)CC3)nn12` [isopropyl 4-(3-(2-ethoxypyridin-3-yl)imidazo[1,2-b]pyridazin-6-yl)piperazine-1-carboxylate] was run?
A: ≤ 10 nM

Q: What about the IC50 (AAK1 [2]) of the same molecule?
A: ≤ 10 nM

Q: How did the IC50 (AAK1 [1]) turn out when `CC(C)(C)COC(=O)N1CCC[C@H]1CNc1ccc2ncc(-c3ccncc3)n2n1` [(S)-neopentyl 2-(((3-(pyridin-4-yl)imidazo[1,2-b]pyridazin-6-yl)amino)methyl)pyrrolidine-1-carboxylate] was run?
A: ≤ 100 nM

Q: And the IC50 (AAK1 [2])?
A: ≤ 10 nM

Q: What does the source list for `CC(C)OC(=O)N1CCN(c2ccc3ncc(-c4ccccc4OC(F)F)n3n2)CC1` [isopropyl 4-(3-(2-(difluoromethoxy)phenyl)imidazo[1,2-b]pyridazin-6-yl)piperazine-1-carboxylate]?
A: IC50 (AAK1 [1]): ≤ 100 nM; IC50 (AAK1 [2]): ≤ 10 nM

Q: How did the IC50 (AAK1 [1]) turn out when `COc1ncccc1-c1cnc2ccc(NC[C@@H]3CCC(=O)N3CCC(C)(C)C)nn12` [(S)-1-(3,3-dimethylbutyl)-5-(((3-(2-methoxypyridin-3-yl)imidazo[1,2-b]pyridazin-6-yl)amino)methyl)pyrrolidin-2-one] was run?
A: ≤ 10 nM

Q: What about the IC50 (AAK1 [2]) of the same molecule?
A: ≤ 10 nM

Q: How did the IC50 (AAK1 [1]) turn out when `COc1ccccc1-c1cnc2ccc(N3CCC(N(C)C(=O)OC(C)(C)C)C3)nn12` (stereo not shown) [tert-butyl (1-(3-(2-methoxyphenyl)imidazo[1,2-b]pyridazin-6-yl)pyrrolidin-3-yl)(methyl)carbamate] was run?
A: ≤ 1000 nM

Q: And the IC50 (AAK1 [2])?
A: ≤ 10 nM

Q: Which IC50 (AAK1 [1]) does the source give for `CC(=O)c1cnc2ccc(N3CCN(C(=O)[C@@H](N)C(C)C)CC3)nn12` [(S)-1-(4-(3-acetylimidazo[1,2-b]pyridazin-6-yl)piperazin-1-yl)-2-amino-3-methylbutan-1-one] here?
A: ≤ 100 nM

Q: And the IC50 (AAK1 [2])?
A: ≤ 10 nM

Q: `COc1ncccc1-c1cnc2ccc(N3CCN(C(=O)N4CCCC4)CC3)nn12` [(4-(3-(2-methoxypyridin-3-yl)imidazo[1,2-b]pyridazin-6-yl)piperazin-1-yl)(pyrrolidin-1-yl)methanone] was tested. Which IC50 (AAK1 [1]) did it give?
A: ≤ 100 nM

Q: And the IC50 (AAK1 [2])?
A: ≤ 10 nM

Q: `CCOc1ccccc1-c1cnc2ccc(N3CCN(C(=O)OC(C)C)CC3)nn12` [isopropyl 4-(3-(2-ethoxyphenyl)imidazo[1,2-b]pyridazin-6-yl)piperazine-1-carboxylate] was tested. Which IC50 (AAK1 [1]) did it give?
A: ≤ 100 nM

Q: What about the IC50 (AAK1 [2]) of the same molecule?
A: ≤ 10 nM

Q: `CC(C)CC(=O)N1CCC[C@H]1CNc1ccc2ncc(-c3ccc(C#N)cc3)n2n1` [(S)-4-(6-(((1-(3-methylbutanoyl)pyrrolidin-2-yl)methyl)amino)imidazo[1,2-b]pyridazin-3-yl)benzonitrile] was tested. Which IC50 (AAK1 [1]) did it give?
A: ≤ 10 nM

Q: And the IC50 (AAK1 [2])?
A: ≤ 10 nM
